Laboratory results taken from PubChem BioAssay AID1033 (Sanford-Burnham Center for Chemical Genomics, 2008).
Activity calls are given as the source filed them. The rule behind the calls is not given here.

Target: Chaperone protein DnaK (Escherichia coli (strain K12)) (UniProt P0A6Y8)
Assay: E. coli DnaK SBD ligand binding – biophysical, NMR, chaperone (AID 1033)
Settings: Purified DnaK SBD

Chain of Chaperone protein DnaK (Escherichia coli (strain K12)) (P0A6Y8 whole entry, looked up): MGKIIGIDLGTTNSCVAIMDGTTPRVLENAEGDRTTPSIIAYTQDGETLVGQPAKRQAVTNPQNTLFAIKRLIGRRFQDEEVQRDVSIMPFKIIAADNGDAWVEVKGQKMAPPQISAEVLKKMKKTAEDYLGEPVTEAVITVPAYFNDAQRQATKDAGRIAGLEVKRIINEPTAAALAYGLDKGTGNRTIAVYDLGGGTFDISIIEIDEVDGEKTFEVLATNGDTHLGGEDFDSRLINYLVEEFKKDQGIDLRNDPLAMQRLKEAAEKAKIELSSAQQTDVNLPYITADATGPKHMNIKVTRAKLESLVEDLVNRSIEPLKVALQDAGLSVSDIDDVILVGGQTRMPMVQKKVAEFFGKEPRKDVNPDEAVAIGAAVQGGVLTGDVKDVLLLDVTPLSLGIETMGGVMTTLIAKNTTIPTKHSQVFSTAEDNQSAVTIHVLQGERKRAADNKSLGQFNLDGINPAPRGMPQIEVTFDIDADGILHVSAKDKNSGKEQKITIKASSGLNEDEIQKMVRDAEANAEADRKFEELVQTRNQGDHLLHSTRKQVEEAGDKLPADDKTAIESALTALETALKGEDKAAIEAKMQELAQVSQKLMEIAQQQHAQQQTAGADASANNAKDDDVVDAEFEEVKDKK

Row | SMILES | Kd
1 | O=C1CCCC(=O)N1Cc1ccco1 | > 4 mM (inactive)
2 | COC[C@]12CN(C=O)C3[C@@H]4[C@H](OC)C1[C@]3(C1CC3(O)C(OC)C(O)C4(OC(C)=O)C1C3OC(=O)c1ccccc1)[C@@H](OC)C[C@H]2O (stereo partly specified) | > 4 mM (inactive)
3 | CC(C)C(=O)NC(=S)N1CCOCC1 | > 4 mM (inactive)
4 | Nc1ncccc1OCc1ccccc1 | > 4 mM (inactive)
5 | C=C[C@@](C)(O)CCC1C(=C)C[C@H](O)C2C(C)(C)CCCC12C (stereo partly specified) | > 4 mM (inactive)
6 | COc1cc2c(c(OC)c1OC)-c1ccc(O)c(=O)cc1[C@@H](NC(C)=O)CC2 | > 4 mM (inactive)
7 | CC(=O)Nc1ccc(-c2cn3ccsc3n2)cc1 | > 4 mM (inactive)
8 | NCCc1cnc[nH]1 | > 4 mM (inactive)
9 | O=C1C=CC(=O)N1c1ccccc1O | > 4 mM (inactive)
10 | O=C(O)CN1C(=O)c2ccc(C(=O)O)cc2C1=O | > 4 mM (inactive)
11 | Cc1cc(N)no1 | > 4 mM (inactive)
12 | Nc1ccccc1-c1nc2ccccc2[nH]1 | > 4 mM (inactive)
13 | O=C(O)C1CN2CCC1CC2 (stereo unspecified) | > 4 mM (inactive)
14 | NC1Cc2ccccc2C1 | > 4 mM (inactive)
15 | O=C(O)CN(CCCc1ccccc1)CC(=O)O | > 4 mM (inactive)
16 | O=C1C=C(O)c2ccccc2C1=O | > 4 mM (inactive)
17 | NC(=O)CCn1cnc2ccccc21 | > 4 mM (inactive)
18 | COCC(=O)Nc1cccc2ccccc12 | > 4 mM (inactive)
19 | COC(=O)c1oc2ccc(Cl)cc2c1NC(C)=O | > 4 mM (inactive)
20 | CCN1CCN(c2ncnc3c2nnn3C)CC1 | > 4 mM (inactive)
21 | Nc1cc(-c2ccco2)[nH]n1 | > 4 mM (inactive)
22 | Cc1ccccc1NC(=O)CC1NCCNC1=O (stereo unspecified) | > 4 mM (inactive)
23 | O=c1[nH]cnc2nn(-c3ccccc3)nc12 | > 4 mM (inactive)
24 | CNCc1ccco1 | > 4 mM (inactive)
25 | O=C(O)CNC(=O)c1ccccc1Cl | > 4 mM (inactive)
26 | COC(=O)Cc1cc(=O)n(-c2nc3ccccc3s2)[nH]1 | > 4 mM (inactive)

Row | SMILES | Kd
27 | CN1CCOc2cc(C(=O)O)ccc21 | > 4 mM (inactive)
28 | O=C(NCCO)NC(=S)c1ccccc1 | > 4 mM (inactive)
29 | NC(=O)c1cccc2c1OCCO2 | > 4 mM (inactive)
30 | O=C(Nc1ccccc1Cl)c1cnccn1 | > 4 mM (inactive)
31 | NC(=O)C(=O)NCc1ccc(Cl)cc1 | > 4 mM (inactive)
32 | CCOC(=O)c1c(C)cc(O)cc1O | > 4 mM (inactive)
33 | Cc1nc(N)sc1C(=O)Nc1nccs1 | > 4 mM (inactive)
34 | O=C(NCCO)c1ccccc1I | > 4 mM (inactive)
35 | CC(CCC(=O)O)[C@H]1CCC2C3CC[C@@H]4C[C@H](O)CC[C@]4(C)C3CC[C@@]21C (stereo partly specified) | > 4 mM (inactive)
36 | COc1nc(N2CCOCC2)nc(N)c1[N+](=O)[O-] | > 4 mM (inactive)
37 | Cc1ccccc1C(=O)Nc1cccc(N)c1 | > 4 mM (inactive)
38 | O=C(NCc1cccnc1)c1ccccn1 | > 4 mM (inactive)
39 | NC(=O)Cc1nc2ccccc2[nH]1 | > 4 mM (inactive)
40 | O=C(Nc1ccon1)c1ccc(Cl)s1 | > 4 mM (inactive)
41 | CC(=O)Nc1ccc(S(=O)(=O)NC2=NCCS2)cc1 | > 4 mM (inactive)
42 | Cn1cccc1C=C1C(=O)NC(=S)NC1=O | > 4 mM (inactive)
43 | O=C(/C=C1\SC(=O)NC1=O)NCc1ccccc1 | > 4 mM (inactive)
44 | COc1ccc2c(c1OC)OC[C@@H](c1ccc(OC)c(OC)c1OC)C2 | > 4 mM (inactive)
45 | O=C(O)C1(O)C[C@@H](O)C(O)[C@H](O)C1 (stereo partly specified) | > 4 mM (inactive)
46 | CCOc1nc(C)ccc1-c1noc(-c2ccncc2)n1 | > 4 mM (inactive)
47 | OCc1ccc2c(c1)OCCCO2 | > 4 mM (inactive)
48 | COC(=O)CSc1nc(N)cc(=O)[nH]1 | > 4 mM (inactive)
49 | CN(C)C(=O)CSc1nc2ccccc2c(=O)[nH]1 | > 4 mM (inactive)
50 | Cc1cc(NS(=O)(=O)Cc2ccccc2)no1 | > 4 mM (inactive)
51 | CC1CN(C2=NCCN2)CC(C)O1 (stereo unspecified) | > 4 mM (inactive)
